Experimental data as given in ChEMBL document CHEMBL1201861, “Genomics of Drug Sensitity in Cancer screening data, Wellcome Trust Sanger Institute”.
pIC50: −log10 of the molar value.

Legend:
Assay in all cases: cells
COLO-741 = format: functional, cell-based; settings: Homo sapiens
Description: SANGER: Inhibition of human COLO-741 cell growth in a cell viability assay.

CP50-MEL-B = format: functional, cell-based; settings: Homo sapiens;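 also: growth inhibition of the human cell line, measured with a cell viability read-out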
Description: SANGER: Inhibition of human CP50-MEL-B cell growth in a cell viability assay.

Ca-Ski = format: functional, cell-based; settings: Homo sapiens;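 also: cell viability assay measuring inhibition of Ca-Ski cell growth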
Description: SANGER: Inhibition of human Ca-Ski cell growth in a cell viability assay.

DU-145 = format: functional, cell-based; settings: Homo sapiens
Description: SANGER: Inhibition of human DU-145 cell growth in a cell viability assay.

FTC-133 = format: functional, cell-based; settings: Homo sapiens
GAMG = format: functional, cell-based; settings: Homo sapiens;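 also: cell growth inhibition measured by a viability assay in the GAMG human cell line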
Description: SANGER: Inhibition of human GAMG cell growth in a cell viability assay.

HCC1569 = format: functional, cell-based; settings: Homo sapiens;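 also: growth inhibition of human HCC1569 cells, read out with a cell viability assay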
Description: SANGER: Inhibition of human HCC1569 cell growth in a cell viability assay.

HCC1954 = format: functional, cell-based; settings: Homo sapiens;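 also: growth inhibition of human HCC1954 cells, read out with a cell viability assay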
Description: SANGER: Inhibition of human HCC1954 cell growth in a cell viability assay.

HCC38 = format: functional, cell-based; settings: Homo sapiens;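 also: cell viability assay on the human HCC38 cell line, with IC50 marking the concentration that inhibits cell growth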
Description: SANGER: Inhibition of human HCC38 cell growth in a cell viability assay.

HLE = format: functional, cell-based; settings: Homo sapiens;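 also: growth inhibition of human HLE cells, read out by a cell viability assay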
Description: SANGER: Inhibition of human HLE cell growth in a cell viability assay.

HN = format: functional, cell-based; settings: Homo sapiens
Description: SANGER: Inhibition of human HN cell growth in a cell viability assay.

HOS = format: functional, cell-based; settings: Homo sapiens;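 also: growth inhibition of human HOS cells, read out with a cell viability assay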
Description: SANGER: Inhibition of human HOS cell growth in a cell viability assay.

HuCCT-1 = format: functional, cell-based, HuCCT1; settings: Homo sapiens;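 also: growth inhibition of HuCCT-1 cells, read out by a cell viability assay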
Description: SANGER: Inhibition of human HuCCT1 cell growth in a cell viability assay.

IGROV-1 = format: functional, cell-based; settings: Homo sapiens;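 also: reduction of IGROV-1 cell growth, read out with a viability assay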
Description: SANGER: Inhibition of human IGROV-1 cell growth in a cell viability assay.

JEG-3 = format: functional, cell-based; settings: Homo sapiens;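 also: growth inhibition of human JEG-3 cells, read out with a cell viability assay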
Description: SANGER: Inhibition of human JEG-3 cell growth in a cell viability assay.

KYSE-150 cell line = format: functional, cell-based; settings: Homo sapiens;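 also: growth inhibition of human KYSE-150 cells, read out with a cell viability assay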
Description: SANGER: Inhibition of human KYSE-150 cell growth in a cell viability assay.

MCF7 = format: functional, cell-based; settings: Homo sapiens;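 also: growth inhibition of human MCF7 cells, read out with a cell viability assay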
Description: SANGER: Inhibition of human MCF7 cell growth in a cell viability assay.

MG-63 = format: functional, cell-based; settings: Homo sapiens;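 also: growth inhibition of human MG-63 cells, read out with a cell viability assay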
Description: SANGER: Inhibition of human MG-63 cell growth in a cell viability assay.

NB7 = format: functional, cell-based, Homo sapiens; settings: Homo sapiens, NB7;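 also: growth inhibition of NB7 cells, read out with a cell viability assay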
Description: SANGER: Inhibition of human NB7 cell growth in a cell viability assay.

NCI-H1623 = format: functional, cell-based; settings: Homo sapiens;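 also: cell viability assay used as the read-out for growth inhibition of NCI-H1623 cells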
Description: SANGER: Inhibition of human NCI-H1623 cell growth in a cell viability assay.

NCI-H1793 = format: functional, cell-based; settings: Homo sapiens;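 also: cell growth inhibition, read out by a cell viability assay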
Description: SANGER: Inhibition of human NCI-H1793 cell growth in a cell viability assay.

NCI-H2030 = format: functional, cell-based; settings: Homo sapiens;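 also: growth inhibition of human NCI-H2030 cells, read out by a cell viability assay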
Description: SANGER: Inhibition of human NCI-H2030 cell growth in a cell viability assay.

NCI-H2228 = format: functional, cell-based; settings: Homo sapiens;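 also: growth inhibition of human NCI-H2228 cells, read out by a cell viability assay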
Description: SANGER: Inhibition of human NCI-H2228 cell growth in a cell viability assay.

NY = format: functional, cell-based; settings: Homo sapiens
Description: SANGER: Inhibition of human NY cell growth in a cell viability assay.

OE19 = format: functional, cell-based; settings: Homo sapiens;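 also: growth inhibition of OE19 cells, measured through a cell viability read-out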
Description: SANGER: Inhibition of human OE19 cell growth in a cell viability assay.

OVCAR-3 = format: functional, cell-based; settings: Homo sapiens;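 also: growth inhibition of human OVCAR-3 cells, determined by a cell viability assay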
Description: SANGER: Inhibition of human OVCAR-3 cell growth in a cell viability assay.

PANC-03-27 = format: functional, cell-based; settings: Homo sapiens
Description: SANGER: Inhibition of human PANC-03-27 cell growth in a cell viability assay.

PANC-08-13 = format: functional, cell-based; settings: Homo sapiens;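 also: cell growth inhibition, measured with a cell viability assay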
Description: SANGER: Inhibition of human PANC-08-13 cell growth in a cell viability assay.

RPMI-2650 = format: functional, cell-based; settings: Homo sapiens
Description: SANGER: Inhibition of human RPMI-2650 cell growth in a cell viability assay.

SBC-5 = format: functional, cell-based; settings: Homo sapiens;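 also: cell viability assay read-out, IC50 is the concentration that inhibits growth of the cells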
Description: SANGER: Inhibition of human SBC-5 cell growth in a cell viability assay.

SK-MEL-24 = format: functional, cell-based; settings: Homo sapiens;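 also: growth inhibition read out by a cell viability assay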
Description: SANGER: Inhibition of human SK-MEL-24 cell growth in a cell viability assay.

SW1710 = format: functional, cell-based; settings: Homo sapiens;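 also: growth inhibition of SW1710 cells, determined with a cell viability assay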
Description: SANGER: Inhibition of human SW1710 cell growth in a cell viability assay.

SW48 = format: functional, cell-based; settings: Homo sapiens;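 also: growth inhibition of SW48 cells, read out with a cell viability assay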
Description: SANGER: Inhibition of human SW48 cell growth in a cell viability assay.

SAOS-2 = format: functional, cell-based; settings: Homo sapiens;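 also: growth inhibition of human Saos-2 cells determined by a cell viability assay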
Description: SANGER: Inhibition of human Saos-2 cell growth in a cell viability assay.

T47D = format: functional, cell-based; settings: Homo sapiens;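 also: growth inhibition of human T47D cells, measured with a cell viability assay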
Description: SANGER: Inhibition of human T47D cell growth in a cell viability assay.

647-V = format: functional, cell-based; settings: Homo sapiens;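 also: growth inhibition of 647-V cells, read out with a cell viability assay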
Description: SANGER: Inhibition of human 647-V cell growth in a cell viability assay.

786-0 = format: functional, cell-based; settings: Homo sapiens
Description: SANGER: Inhibition of human 786-0 cell growth in a cell viability assay.

8305C = format: functional, cell-based; settings: Homo sapiens
Description: SANGER: Inhibition of human 8305C cell growth in a cell viability assay.

BCPAP = format: functional, cell-based; settings: Homo sapiens;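 also: growth inhibition of BCPAP cells, read out in a cell viability assay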
Description: SANGER: Inhibition of human BCPAP cell growth in a cell viability assay.

BFTC-905 = format: functional, cell-based; settings: Homo sapiens
Description: SANGER: Inhibition of human BFTC-905 cell growth in a cell viability assay.

BFTC-909 = format: functional, cell-based; settings: Homo sapiens
Description: SANGER: Inhibition of human BFTC-909 cell growth in a cell viability assay.

CAL-12T = format: functional, cell-based; settings: Homo sapiens;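 also: growth inhibition of human CAL-12T cells, read out with a cell viability assay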
Description: SANGER: Inhibition of human CAL-12T cell growth in a cell viability assay.

CAL-51 = format: functional, cell-based; settings: Homo sapiens;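 also: human CAL-51 cell line, growth inhibition read out via a cell viability assay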
Description: SANGER: Inhibition of human CAL-51 cell growth in a cell viability assay.

U-118-MG = format: functional, cell-based; settings: Homo sapiens
Description: SANGER: Inhibition of human U-118-MG cell growth in a cell viability assay.

UO-31 = format: functional, cell-based; settings: Homo sapiens;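 also: cell viability assay measuring inhibition of cell growth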
Description: SANGER: Inhibition of human U031 cell growth in a cell viability assay.

CHL-1 = format: functional, cell-based; settings: Homo sapiens;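 also: cell growth inhibition, read out with a cell viability assay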
Description: SANGER: Inhibition of human CHL-1 cell growth in a cell viability assay.

CHP-212 = format: functional, cell-based; settings: Homo sapiens
Description: SANGER: Inhibition of human CHP-212 cell growth in a cell viability assay.

COLO-678 = format: functional, cell-based; settings: Homo sapiens
Description: SANGER: Inhibition of human COLO-678 cell growth in a cell viability assay.

EHEB = format: functional, cell-based; settings: Homo sapiens;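 also: growth inhibition of human EHEB cells, read out with a cell viability assay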
Description: SANGER: Inhibition of human EHEB cell growth in a cell viability assay.

HC-1 = format: functional, cell-based, Homo sapiens; settings: Homo sapiens, HC-1;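 also: growth inhibition of HC-1 cells measured by a cell viability assay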
Description: SANGER: Inhibition of human HC-1 cell growth in a cell viability assay.

KMOE-2 = format: functional, cell-based, Homo sapiens; settings: Homo sapiens, KMOE-2;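 also: growth inhibition of human KMOE-2 cells, read out with a cell viability assay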
Description: SANGER: Inhibition of human KMOE-2 cell growth in a cell viability assay.

KMS-12-PE = format: functional, cell-based, Homo sapiens; settings: Homo sapiens, KMS-12-PE;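 also: growth inhibition of human KMS-12-PE cells, measured with a cell viability assay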
Description: SANGER: Inhibition of human KMS-12-PE cell growth in a cell viability assay.

LC4-1 = format: functional, cell-based, Homo sapiens; settings: Homo sapiens, LC4-1;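 also: growth inhibition of LC4-1 cells, read out with a cell viability assay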
Description: SANGER: Inhibition of human LC4-1 cell growth in a cell viability assay.

MDA-MB-134-VI = format: functional, cell-based, Homo sapiens; settings: Homo sapiens, MDA-MB-134-VI
Description: SANGER: Inhibition of human MDA-MB-134-VI cell growth in a cell viability assay.

NCI-H1436 = format: functional, cell-based, Homo sapiens; settings: Homo sapiens, NCI-H1436;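 also: growth suppression of human NCI-H1436 cells, determined with a cell viability readout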
Description: SANGER: Inhibition of human NCI-H1436 cell growth in a cell viability assay.

NCI-H510A = format: functional, cell-based, Homo sapiens; settings: Homo sapiens, NCI-H510A;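 also: growth inhibition of NCI-H510A cells, read out with a cell viability assay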
Description: SANGER: Inhibition of human NCI-H510A cell growth in a cell viability assay.

NCI-H716 = format: functional, cell-based, Homo sapiens; settings: Homo sapiens, NCI-H716;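 also: growth inhibition of human NCI-H716 cells, measured by a cell viability assay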
Description: SANGER: Inhibition of human NCI-H716 cell growth in a cell viability assay.

P31-FUJ = format: functional, cell-based, Homo sapiens; settings: Homo sapiens, P31-FUJ;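 also: growth inhibition of P31-FUJ cells, read out with a viability assay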
Description: SANGER: Inhibition of human P31-FUJ cell growth in a cell viability assay.

SR = format: functional, cell-based, Homo sapiens; settings: Homo sapiens, SR
Description: SANGER: Inhibition of human SR cell growth in a cell viability assay.

THP-1 = format: functional, cell-based, Homo sapiens; settings: Homo sapiens, THP-1;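 also: growth inhibition of THP-1 cells, read out via a cell viability assay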
Description: SANGER: Inhibition of human THP-1 cell growth in a cell viability assay.

Measured: pIC50

O=C1NC(=O)c2c1c(-c1ccccc1Cl)cc1[nH]c3ccc(O)cc3c21
5.89: HN | NCI-H2030
5.79: BFTC-905
6.21: CHP-212
5.98: CHL-1
6.79: DU-145
5.92: PANC-03-27
not listed: EHEB | HC-1 | KMOE-2 | KMS-12-PE | LC4-1 | MDA-MB-134-VI | NCI-H1436 | NCI-H510A | NCI-H716 | P31-FUJ | SR | THP-1
< 5.70: all other assays above

CC(C)C[C@H](NC(=O)[C@H](Cc1ccccc1)NC(=O)c1cnccn1)B(O)O [BORTEZOMIB]
8.75: LC4-1
8.78: EHEB
8.65: KMOE-2
7.77: NCI-H1436
8.90: SR
7.80: NB7
9.01: HC-1
< 7.70: KMS-12-PE | MDA-MB-134-VI | NCI-H510A | NCI-H716 | P31-FUJ | THP-1

O=C(NCCCNc1nc(Nc2cccc(NC(=O)N3CCCC3)c2)ncc1I)c1cccs1 [BX-795]
5.72: CHL-1
5.33: BFTC-909
5.55: GAMG
5.64: SW1710
5.56: KYSE-150 cell line
5.80: HOS
5.32: CAL-12T
5.44: 8305C
5.77: MG-63
5.97: BFTC-905
5.38: PANC-03-27
5.94: CHP-212
5.69: SW48
5.39: SAOS-2
5.67: HN
5.91: CAL-51
5.52: FTC-133
5.65: BCPAP
not listed: EHEB | HC-1 | KMOE-2 | KMS-12-PE | LC4-1 | MDA-MB-134-VI | NCI-H1436 | NCI-H510A | NCI-H716 | P31-FUJ | SR | THP-1
< 5.30: all other assays above
